Laboratory results reported in patent US20250281414A1, “HIGH DOSE ENDOXIFEN FORMULATIONS AND METHODS OF USE” (Atossa Therapeutics, Inc., priority 2022, published 2025).
Converted amounts (≈) assume the structure as drawn.

What was measured:
[1] = pH-dependent solubility of (Z)-endoxifen; format: physicochemical; conditions: for solubility: read-out: Solubility Z-form
Description: This example describes pH-dependent solubility of (Z)-endoxifen. (Z)-endoxifen was dissolved in solution under different pH conditions, and the solubility was measured. Since (Z)-endoxifen converts to the E-form under acidic conditions, the solubility of (Z)-endoxifen and (E)-endoxifen were measured independently, and a ratio of Z-form to E-form was determined.

[2] = Solubility of (Z)-endoxifen at pH 6.8 with and without Polysorbate 80; format: physicochemical
Description: This example describes development of a dissolution assay to measure dissolution of endoxifen formulations. Since solubility of endoxifen decreases as pH becomes less acidic, as shown in EXAMPLE 1, additional experiments were performed to improve solubility of endoxifen in the pH 6.8 buffer solution. Polysorbate 80 (PS80), a nonionic surfactant, was added in varying concentrations to improve solubility and mimic an intestinal environment. Surfactants, such as polysorbate 80, create micelles in the medium that mimic the bile acid aggregates in the small intestine. These micelles facilitate the diffusion and transport of product into the medium.

Z-form to E-form equilibration ([1]; pH 6.8): below the limit of detection
solubility ([1]; solution at pH 1.2, pH 1.2, simulated gastric fluid): 1050 µg/mL (≈ 2800 µM)
solubility ([1]; solution at pH 4.5, pH 4.5, aqueous buffer): 250 µg/mL (≈ 668 µM)
solubility ([1]; solution at pH 5.0, pH 5, aqueous buffer): 203 µg/mL (≈ 543 µM)
solubility ([1]; solution at pH 5.5, pH 5.5, aqueous buffer): 43.5 µg/mL (≈ 116 µM)
solubility ([1]; solution at pH 6.0, pH 6, aqueous buffer): 27.8 µg/mL (≈ 74.4 µM)
solubility ([1]; solution at pH 6.8, pH 6.8, aqueous buffer): 4.26 µg/mL (≈ 11.4 µM)
solubility ([1]; water): 0.78 µg/mL (≈ 2.09 µM)
solubility ([2]; aqueous buffer, pH 6.8 Buffer (Control), no Polysorbate 80): 8.14 µg/mL (≈ 21.8 µM)
solubility ([2]; pH 6.8 buffer with 0.5% Polysorbate 80, pH 6.8, aqueous with cosolvent or surfactant or cyclodextrin): 58.3 µg/mL (≈ 156 µM)
solubility ([2]; pH 6.8 buffer with 1.0% Polysorbate 80, pH 6.8, aqueous with cosolvent or surfactant or cyclodextrin): 62.1 µg/mL (≈ 166 µM)
SMILES: CC/C(=C(\c1ccc(O)cc1)c1ccc(OCCNC)cc1)c1ccccc1 [(Z)-endoxifen]
